Results reported in PMC6414696 (mBio, 2019).
Converted amounts (≈) assume the structure as drawn. Read-outs that look alike come from different tables or passages of the source.

Legend:
[1] = system: A. baumannii clinical isolates; experiment: microbe, parasite or virus in culture; assay type: cell-based, Acinetobacter baumannii; conditions: for MIC: Acinetobacter baumannii
[2] = system: A. baumannii (ATCC 17978); assay type: cell-based, Acinetobacter baumannii; conditions: ETX2514 at 4 mg/liter in combination
A. nosocomialis (M2) = assay type: cell-based, Acinetobacter nosocomialis; conditions: ETX2514 at 4 mg/liter in combination
A. baumannii ARC5955 [3] = experiment: Neutropenic murine thigh infection model; assay type: in vivo; conditions: thigh tissue, CD-1 mice, 24 h after initiation of therapy, 75 mg/kg SC/q3h; for Change in log10 CFU/g: 75 mg/kg
OXA-66 β-lactamase = OXA-66 β-lactamase (Acinetobacter baumannii, UniProt Q58XD2); experiment: β-Lactamase steady-state kinetic analysis, OXA-66; assay type: biochemical, A. baumannii; conditions: OXA-66; data not shown
Chain of OXA-66 β-lactamase (Q58XD2 entry or part of it): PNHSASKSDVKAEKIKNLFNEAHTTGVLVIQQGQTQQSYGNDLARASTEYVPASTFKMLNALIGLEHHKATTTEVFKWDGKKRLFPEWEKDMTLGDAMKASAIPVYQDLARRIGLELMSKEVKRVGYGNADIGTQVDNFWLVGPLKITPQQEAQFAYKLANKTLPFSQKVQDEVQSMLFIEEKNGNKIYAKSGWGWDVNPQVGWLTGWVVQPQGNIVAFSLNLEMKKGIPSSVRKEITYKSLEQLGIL

A. baumannii isolates = conditions: panel of A. baumannii isolates in a previous study; cited from earlier work
A. baumannii ARC5955 [4] = conditions: A. baumannii ARC5955 carrying blaTEM-1, blaADC-82, blaOXA-23, blaOXA-66; cited from earlier work

Compound: CC1(C)[C@H](C(=O)O)N2C(=O)C[C@H]2S1(=O)=O [Sulbactam]
- MIC90 ([1]; 72 WRAMC A. baumannii isolates, ETX2514 at 4 mg/liter in combination): 32 µg/mL
- isolates resistant (MIC ≥ 16 mg/liter) ([1]; 72 WRAMC isolates (34/72)): 47%
- MIC ([1]; strain AB001, ETX2514 at 4 mg/liter in combination): 16 µg/mL
- MIC ([1]; strain AB002, ETX2514 at 4 mg/liter in combination): 8 µg/mL
- MIC ([1]; strain AB003, ETX2514 at 4 mg/liter in combination): 8 µg/mL
- MIC ([1]; strain AB004, ETX2514 at 4 mg/liter in combination): 4 µg/mL
- MIC ([1]; strain AB005, ETX2514 at 4 mg/liter in combination): 4 µg/mL
- MIC ([1]; strain AB006, ETX2514 at 4 mg/liter in combination): 4 µg/mL
- MIC ([1]; strain AB007, ETX2514 at 4 mg/liter in combination): 4 µg/mL
- MIC ([1]; strain AB008, ETX2514 at 4 mg/liter in combination): 4 µg/mL
- MIC ([1]; strain AB009, ETX2514 at 4 mg/liter in combination): 4 µg/mL
- MIC ([1]; strain AB010, ETX2514 at 4 mg/liter in combination): 4 µg/mL
- MIC ([1]; strain AB011, ETX2514 at 4 mg/liter in combination): 8 µg/mL
- MIC ([1]; strain AB012, ETX2514 at 4 mg/liter in combination): 4 µg/mL
- MIC ([1]; strain AB013, ETX2514 at 4 mg/liter in combination): 4 µg/mL
- MIC ([1]; strain AB014, ETX2514 at 4 mg/liter in combination): 4 µg/mL
- MIC ([1]; strain AB015, ETX2514 at 4 mg/liter in combination): 4 µg/mL
- MIC ([1]; strain AB016, ETX2514 at 4 mg/liter in combination): 4 µg/mL
- MIC ([1]; strain AB017, ETX2514 at 4 mg/liter in combination): 32 µg/mL
- MIC ([1]; strain AB018, ETX2514 at 4 mg/liter in combination): 64 µg/mL
- MIC ([1]; strain AB019, ETX2514 at 4 mg/liter in combination): 16 µg/mL
- MIC ([1]; strain AB020, ETX2514 at 4 mg/liter in combination): 16 µg/mL
- MIC ([1]; strain AB021, ETX2514 at 4 mg/liter in combination): 16 µg/mL
- MIC ([1]; strain AB022, ETX2514 at 4 mg/liter in combination): 16 µg/mL
- MIC ([1]; strain AB023, ETX2514 at 4 mg/liter in combination): 16 µg/mL
- MIC ([1]; strain AB024, ETX2514 at 4 mg/liter in combination): 16 µg/mL
- MIC ([1]; strain AB025, ETX2514 at 4 mg/liter in combination): 16 µg/mL
- MIC ([1]; strain AB026, ETX2514 at 4 mg/liter in combination): 16 µg/mL
- MIC ([1]; strain AB027, ETX2514 at 4 mg/liter in combination): 16 µg/mL
- MIC ([1]; strain AB028, ETX2514 at 4 mg/liter in combination): 16 µg/mL
- MIC ([1]; strain AB029, ETX2514 at 4 mg/liter in combination): 16 µg/mL
- MIC ([1]; strain AB030, ETX2514 at 4 mg/liter in combination): 16 µg/mL
- MIC ([1]; strain AB031, ETX2514 at 4 mg/liter in combination): 16 µg/mL
- MIC ([1]; strain AB032, ETX2514 at 4 mg/liter in combination): 16 µg/mL
- MIC ([1]; strain AB033, ETX2514 at 4 mg/liter in combination): 64 µg/mL
- MIC ([1]; strain AB034, ETX2514 at 4 mg/liter in combination): 16 µg/mL
- MIC ([1]; strain AB035, ETX2514 at 4 mg/liter in combination): 16 µg/mL
- MIC ([1]; strain AB036, ETX2514 at 4 mg/liter in combination): 16 µg/mL
- MIC ([1]; strain AB037, ETX2514 at 4 mg/liter in combination): 64 µg/mL
- MIC ([1]; strain AB038, ETX2514 at 4 mg/liter in combination): 16 µg/mL
- MIC ([1]; strain AB039, ETX2514 at 4 mg/liter in combination): 4 µg/mL
- MIC ([1]; strain AB040, ETX2514 at 4 mg/liter in combination): 32 µg/mL
- MIC ([1]; strain AB041, ETX2514 at 4 mg/liter in combination): 16 µg/mL
- MIC ([1]; strain AB042, ETX2514 at 4 mg/liter in combination): 4 µg/mL
- MIC ([1]; strain AB043, ETX2514 at 4 mg/liter in combination): 4 µg/mL
- MIC ([1]; strain AB044, ETX2514 at 4 mg/liter in combination): 4 µg/mL
- MIC ([1]; strain AB045, ETX2514 at 4 mg/liter in combination): 2 µg/mL
- MIC ([1]; strain AB046, ETX2514 at 4 mg/liter in combination): 4 µg/mL
- MIC ([1]; strain AB047, ETX2514 at 4 mg/liter in combination): 4 µg/mL
- MIC ([1]; strain AB048, ETX2514 at 4 mg/liter in combination): 4 µg/mL
- MIC ([1]; strain AB049, ETX2514 at 4 mg/liter in combination): 4 µg/mL
- MIC ([1]; strain AB050, ETX2514 at 4 mg/liter in combination): 4 µg/mL
- MIC ([1]; strain AB051, ETX2514 at 4 mg/liter in combination): 2 µg/mL
- MIC ([1]; strain AB052, ETX2514 at 4 mg/liter in combination): 64 µg/mL
- MIC ([1]; strain AB053, ETX2514 at 4 mg/liter in combination): 32 µg/mL
- MIC ([1]; strain AB054, ETX2514 at 4 mg/liter in combination): 64 µg/mL
- MIC ([1]; strain AB055, ETX2514 at 4 mg/liter in combination): 16 µg/mL
- MIC ([1]; strain AB056, ETX2514 at 4 mg/liter in combination): 8 µg/mL
- MIC ([1]; strain AB057, ETX2514 at 4 mg/liter in combination): 16 µg/mL
- MIC ([1]; strain AB058, ETX2514 at 4 mg/liter in combination): 32 µg/mL
- MIC ([1]; strain AB059, ETX2514 at 4 mg/liter in combination): 32 µg/mL
- MIC ([1]; strain AB060, ETX2514 at 4 mg/liter in combination): 8 µg/mL
- MIC ([1]; strain AB061, ETX2514 at 4 mg/liter in combination): 8 µg/mL
- MIC ([1]; strain AB062, ETX2514 at 4 mg/liter in combination): 8 µg/mL
- MIC ([1]; strain AB063, ETX2514 at 4 mg/liter in combination): 32 µg/mL
- MIC ([1]; strain AB064, ETX2514 at 4 mg/liter in combination): 8 µg/mL
- MIC ([1]; strain AB065, ETX2514 at 4 mg/liter in combination): 8 µg/mL
- MIC ([1]; strain AB066, ETX2514 at 4 mg/liter in combination): 4 µg/mL
- MIC ([1]; strain AB067, ETX2514 at 4 mg/liter in combination): 4 µg/mL
- MIC ([1]; strain AB068, ETX2514 at 4 mg/liter in combination): 4 µg/mL
- MIC ([1]; strain AB069, ETX2514 at 4 mg/liter in combination): 4 µg/mL
- MIC ([1]; strain AB070, ETX2514 at 4 mg/liter in combination): 32 µg/mL
- MIC ([1]; strain AB071, ETX2514 at 4 mg/liter in combination): 8 µg/mL
- MIC ([1]; strain AB072, ETX2514 at 4 mg/liter in combination): 4 µg/mL
- MIC ([1]; strain CCF 1MR, carbapenem resistant, ETX2514 at 4 mg/liter in combination): 32 µg/mL
- MIC ([1]; strain CCF 2MR, carbapenem resistant, ETX2514 at 4 mg/liter in combination): 16 µg/mL
- MIC ([1]; strain CCF 3MR, carbapenem resistant, ETX2514 at 4 mg/liter in combination): 4 µg/mL
- MIC ([1]; strain CCF 4MR, carbapenem resistant, ETX2514 at 4 mg/liter in combination): 16 µg/mL
- MIC ([1]; strain CCF 5MR, carbapenem resistant, ETX2514 at 4 mg/liter in combination): 16 µg/mL
- MIC ([1]; strain CCF 6MR, carbapenem resistant, ETX2514 at 4 mg/liter in combination): 16 µg/mL
- MIC ([1]; strain CCF 7MR, carbapenem resistant, ETX2514 at 4 mg/liter in combination): 32 µg/mL
- MIC ([1]; strain CCF 8MR, carbapenem resistant, ETX2514 at 4 mg/liter in combination): 8 µg/mL
- MIC ([1]; strain UH AB202, carbapenem resistant, ETX2514 at 4 mg/liter in combination): 16 µg/mL
- MIC ([1]; strain UH AB461, carbapenem resistant, ETX2514 at 4 mg/liter in combination): 8 µg/mL
- MIC ([1]; strain UH AB477, carbapenem resistant, ETX2514 at 4 mg/liter in combination): 16 µg/mL
- MIC ([1]; strain UH AB487, carbapenem resistant, ETX2514 at 4 mg/liter in combination): 16 µg/mL
- MIC ([1]; strain UH AB489, carbapenem resistant, ETX2514 at 4 mg/liter in combination): 16 µg/mL
- MIC ([1]; strain UH AB490, carbapenem resistant, ETX2514 at 4 mg/liter in combination): 16 µg/mL
- MIC ([1]; strain UH AB491, carbapenem resistant, ETX2514 at 4 mg/liter in combination): 16 µg/mL
- MIC ([1]; strain UH AB636, carbapenem resistant, ETX2514 at 4 mg/liter in combination): 16 µg/mL
- MIC ([1]; strain UH AB660, carbapenem resistant, ETX2514 at 4 mg/liter in combination): 16 µg/mL
- MIC ([1]; strain UH AB667, carbapenem resistant, ETX2514 at 4 mg/liter in combination): 32 µg/mL
- MIC ([1]; strain VA-432, carbapenem resistant, ETX2514 at 4 mg/liter in combination): 16 µg/mL
- MIC ([1]; strain VA-433, carbapenem resistant, ETX2514 at 4 mg/liter in combination): 16 µg/mL
- MIC ([1]; strain VA-434, carbapenem resistant, ETX2514 at 4 mg/liter in combination): 16 µg/mL
- MIC ([1]; strain VA-435, carbapenem resistant, ETX2514 at 4 mg/liter in combination): 16 µg/mL
- MIC ([1]; strain VA-436, carbapenem resistant, ETX2514 at 4 mg/liter in combination): 16 µg/mL
- MIC ([1]; strain VA-437, carbapenem resistant, ETX2514 at 4 mg/liter in combination): 8 µg/mL
- MIC ([1]; strain VA-438, carbapenem resistant, ETX2514 at 4 mg/liter in combination): 8 µg/mL
- MIC ([1]; strain VA-505, carbapenem resistant, ETX2514 at 4 mg/liter in combination): 8 µg/mL
- MIC ([2]; ATCC 17978 ΔadeB/ΔadeJ): 1 µg/mL
- MIC ([2]; ATCC 17978 ΔadeB): 1 µg/mL
- MIC ([2]; ATCC 17978 ΔadeJ): 1 µg/mL
- MIC (A. nosocomialis (M2); M2 WT): 2 µg/mL
- MIC (A. nosocomialis (M2); M2 ΔadeB/ΔadeJ): 2 µg/mL
- MIC (A. nosocomialis (M2); M2 ΔadeJ): 2 µg/mL
- Log10 CFU/g (A. baumannii ARC5955 [3]): 9.0 log10 CFU/g
- Change in log10 CFU/g (A. baumannii ARC5955 [3]): 2.5 log10 CFU/g
- Change in log10 CFU/g (A. baumannii ARC5955 [3]; listed as sulbactam): > 2 log10 CFU/g
- substrate quality for the enzyme (OXA-66 β-lactamase): very poor substrate
- MIC90 (A. baumannii isolates): 64 µg/mL (≈ 274 µM)
- MIC (A. baumannii ARC5955 [4]): 64 µg/mL (≈ 274 µM)
